Laboratory results: PubChem BioAssay (NCI)
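How tested: cells in 96-well plates exposed to compound for 48 hours at five concentrations. Definition used: TGI = concentration required for complete inhibition of growth.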

How the values were obtained:
Experiment in all cases: DTP human tumour cell line panel, 48 h
[1] = test system: HOP-92 NSCLC
[2] = test system: PC-3 prostate
[3] = test system: MDA-MB-435
[4] = test system: EKVX NSCLC
[5] = test system: OVCAR-3 ovarian
[6] = test system: K-562 leukemia
[7] = test system: SF-539 CNS
[8] = test system: A498 renal
[9] = test system: OVCAR-5 ovarian
[10] = test system: TK-10 renal
[11] = test system: RPMI-8226 leukemia
[12] = test system: HS 578T breast
[13] = test system: MDA-N
[14] = test system: SK-MEL-5 melanoma
[15] = test system: SF-295 CNS
[16] = test system: SK-MEL-28 melanoma
[17] = test system: SK-MEL-2 melanoma
[18] = test system: UO-31 renal
[19] = test system: CCRF-CEM leukemia
[20] = test system: NCI-H460 lung
[21] = test system: HCC-2998 colon
[22] = test system: NCI-H23 lung
[23] = test system: NCI-H522 lung
[24] = test system: T-47D breast
[25] = test system: SF-268 CNS
[26] = test system: UACC-257 melanoma
[27] = test system: M14 melanoma
[28] = test system: SW-620 colon
[29] = test system: MDA-MB-231 breast
[30] = test system: LOX IMVI melanoma
[31] = test system: MOLT-4 leukemia
[32] = test system: MCF7 breast
[33] = test system: SR leukemia
[34] = test system: RXF 393 renal
[35] = test system: CAKI-1 renal
[36] = test system: NCI/ADR-RES ovarian
[37] = test system: IGROV1 ovarian
[38] = test system: ACHN renal
[39] = test system: KM12 colon
[40] = test system: HCT-15 colon
[41] = test system: OVCAR-8 ovarian
[42] = test system: DU-145 prostate
[43] = test system: HOP-62 NSCLC
[44] = test system: OVCAR-4 ovarian
[45] = test system: U251 CNS
[46] = test system: 786-0 renal
[47] = test system: HCT-116 colon
[48] = test system: HL-60(TB) leukemia
[49] = test system: HT29 colon
[50] = test system: SK-OV-3 ovarian
[51] = test system: NCI-H226 lung
[52] = test system: SN12C renal
[53] = test system: UACC-62 melanoma
[54] = test system: MALME-3M melanoma
[55] = test system: BT-549 breast
[56] = test system: COLO 205 colon
[57] = test system: SNB-19 CNS
[58] = test system: SNB-75 CNS
[59] = test system: A549 NSCLC

Measured: TGI

CC1=NN(c2nc(N)nc(-c3ccccc3S(N)(=O)=O)n2)C(C)(C)C1
52.5 µM: [36]
41.2 µM: [48]
68.5 µM: [33]
57 µM: [17]
87.2 µM: [27]
64.5 µM: [8]
79.8 µM: [31]
82.1 µM: [38]
not listed: [52] | [53] | [54] | [55] | [56] | [57] | [58] | [59]
> 100 µM: all other assays above

O=C(COc1ccc(OCC(=O)N2C(=O)CC(=O)N(c3ccccc3)C2=S)cc1)N1C(=O)CC(=O)N(c2ccccc2)C1=S
95 µM: [34]
60.1 µM: [47]
not listed: [5] | [7] | [12] | [14] | [19] | [24] | [30] | [33] | [41] | [43] | [48]
> 100 µM: all other assays above
